Where two headings read alike, the source gives them in different places. Marks after values point to notes of the source that are not given here.

From article PMC8893300, “A Dynamic Mass Redistribution Assay for the Human Sweet Taste Receptor Uncovers G-Protein Dependent Biased Ligands” (Frontiers in Pharmacology, 2022) come the findings set out here.

The test concerns the target T1, human sweet taste receptor (hT1R2/hT1R3) (Homo sapiens, UniProt Q7RTX0+Q8TE23).
T1 construct: expressed in transfected cells
T1 sequence (Q8TE23 20-839): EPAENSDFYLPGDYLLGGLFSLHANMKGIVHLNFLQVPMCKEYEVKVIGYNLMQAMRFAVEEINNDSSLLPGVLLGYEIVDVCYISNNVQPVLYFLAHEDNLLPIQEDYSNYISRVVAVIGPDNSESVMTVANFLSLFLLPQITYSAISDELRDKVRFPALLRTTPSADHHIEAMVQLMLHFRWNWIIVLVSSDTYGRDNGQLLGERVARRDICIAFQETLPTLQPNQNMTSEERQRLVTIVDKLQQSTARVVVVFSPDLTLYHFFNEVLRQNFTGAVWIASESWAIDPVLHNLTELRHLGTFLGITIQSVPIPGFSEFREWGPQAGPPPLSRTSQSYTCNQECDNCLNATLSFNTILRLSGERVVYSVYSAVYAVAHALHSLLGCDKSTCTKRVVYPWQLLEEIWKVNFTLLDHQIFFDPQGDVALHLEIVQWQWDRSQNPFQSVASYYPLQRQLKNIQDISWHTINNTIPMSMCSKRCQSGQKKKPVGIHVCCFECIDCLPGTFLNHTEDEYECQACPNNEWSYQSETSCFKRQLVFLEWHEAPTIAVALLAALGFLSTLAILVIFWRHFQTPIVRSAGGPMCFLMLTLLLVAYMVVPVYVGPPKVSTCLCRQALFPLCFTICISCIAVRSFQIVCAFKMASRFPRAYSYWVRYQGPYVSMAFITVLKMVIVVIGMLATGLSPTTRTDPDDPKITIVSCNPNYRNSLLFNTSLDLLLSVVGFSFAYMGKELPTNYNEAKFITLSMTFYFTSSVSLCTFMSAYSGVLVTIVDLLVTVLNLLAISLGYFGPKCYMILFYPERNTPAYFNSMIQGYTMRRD
T1 sequence (Q7RTX0 21-852): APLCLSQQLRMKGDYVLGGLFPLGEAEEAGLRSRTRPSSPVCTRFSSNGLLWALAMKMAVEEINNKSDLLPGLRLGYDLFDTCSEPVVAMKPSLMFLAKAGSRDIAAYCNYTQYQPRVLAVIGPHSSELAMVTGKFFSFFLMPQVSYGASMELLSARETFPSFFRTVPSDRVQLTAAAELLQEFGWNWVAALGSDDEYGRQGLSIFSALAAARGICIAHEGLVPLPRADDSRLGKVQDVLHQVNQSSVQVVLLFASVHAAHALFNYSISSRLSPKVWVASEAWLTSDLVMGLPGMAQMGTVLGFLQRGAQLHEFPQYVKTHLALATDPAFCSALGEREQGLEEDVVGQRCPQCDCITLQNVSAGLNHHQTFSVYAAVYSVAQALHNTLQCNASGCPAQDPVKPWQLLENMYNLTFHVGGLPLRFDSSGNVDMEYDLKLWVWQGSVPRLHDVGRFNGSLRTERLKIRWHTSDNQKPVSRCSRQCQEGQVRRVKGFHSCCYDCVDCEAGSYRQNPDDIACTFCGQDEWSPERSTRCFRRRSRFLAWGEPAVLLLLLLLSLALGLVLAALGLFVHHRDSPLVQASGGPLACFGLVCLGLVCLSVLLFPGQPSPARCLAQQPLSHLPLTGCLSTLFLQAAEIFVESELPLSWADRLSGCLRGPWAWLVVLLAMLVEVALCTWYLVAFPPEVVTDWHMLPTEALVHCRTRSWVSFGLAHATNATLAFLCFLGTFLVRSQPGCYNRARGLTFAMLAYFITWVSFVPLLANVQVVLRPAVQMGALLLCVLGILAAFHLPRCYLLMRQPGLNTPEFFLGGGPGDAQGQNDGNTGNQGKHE
The experiment in a line: DMR assay (Epic reader) on R2/R3 U2OS cells, endogenous G proteins. The following applies: for EC50: R2/R3 U2OS cells, peak DMR response; for ΔlogR DMR Mean: Table 2, operational model, logR minus sucralose logR; for Activity in DMR assay Emax: top asymptote of dose-response normalized to 1 mM sucralose. Format: cell-based.

[1] abbreviates: read-out: Activity in DMR assay EC50.
[2] abbreviates: read-out: Activity in DMR assay pEC50 (converted).

For `COC(=O)[C@H](Cc1ccccc1)NC(=O)[C@H](CC(=O)O)NCCC(C)(C)C` [Neotame], the “ΔlogR DMR Mean” value worked out at 1.15 and the “Activity in DMR assay Emax” value was 99*. The EC50 under setting [1] worked out at 7700 nM. In addition, the EC50 under setting [2] is 7290 nM.

Turning to `CC(C)Oc1ccc(NC(=S)NCc2ccc[nH]2)cc1` [S819], the “ΔlogR DMR Mean” value was 2.52 and the “Activity in DMR assay Emax” value is 143*. In addition, under setting [1], the EC50 was 700 nM. For the same compound, the EC50 under setting [2] was 637 nM.

`CC(C)Oc1ccc(NC(=S)NCc2cccs2)cc1` [S5227]: the “ΔlogR DMR Mean” value came out at 1.84 and the “Activity in DMR assay Emax” value is 128. Also, under setting [1], the EC50 is 2200 nM. Further, under setting [2], the EC50 is 2070 nM.
